# Read-outs that look alike come from different tables or passages of the source.
# Tests used:
# TLR7 = TLR7 (Homo sapiens (Human), UniProt Q9NYK1); assay: TLR7 human peripheral blood mononuclear cell (PBMC) cell-based assay (GS-986 as agonist; IL-6 and IFNα readout); settings: TLR7 agonist GS-986 at 400 nM, 6 hours, antagonist potency
# Protocol: Human peripheral blood mononuclear cells (PBMCs) consist of lymphocytes, monocytes and dendritic cells that express TLR7, TLR8 and TLR9. These cells respond to TLR7, TLR8 and TLR9 ligand stimulation and produce cytokines and chemokines in vitro and in vivo. Human PBMCs are therefore suitable to be used in a cell-based assay to assess the in vitro potency of a TLR 7, 8, and/or 9 antagonist.
# After counting, the cell density was adjusted to 2 million cells/ml and incubated for 1 hour at 37° C., 5% CO2 for recovery. Following the recovery, the cells were plated by adding 50 μl per well (100,000 cells) to 384-well cell culture plates (Greiner) containing 250 nl of test antagonists in 100% DMSO per well, in a 10 points dose response in quadruplicates. PBMCs were incubated in the presence of test antagonists for one hour at 37° C., 5% CO2 before being stimulated with a TLR7 or TLR9agonist. […] PBMCs were incubated in the presence of the test antagonist and the TLR7 (or TLR9) agonist for an additional 6 hours at 37° C., 5% CO2. At the end of the incubation, the cell culture plates were centrifuged at 500 g for 5 min, and the cell culture supernatant was collected. The level of cytokines (IL-6 and IFNα) in the supernatant was measured by electrochemiluminescence immunoassays (Mesoscale Discovery) following manufacturer's recommended protocols.
# TLR8 = TLR8 (Homo sapiens (Human), UniProt Q9NR97); assay: TLR8 human peripheral blood mononuclear cell (PBMC) cell-based assay (Compound A as agonist; TNFα and IL12p40 readout); settings: TLR8 agonist Compound A at 800 nM, 6 hours, antagonist potency
# Protocol: After counting, the cell density was adjusted to 2 million cells/ml and incubated for 1 hour at 37° C., 5% CO2 for recovery. Following the recovery, the cells were plated by adding 50 μl per well (100,000 cells) to 384-well cell culture plates (Greiner) containing 250 nl of test antagonists in 100% DMSO per well, in a 10 points dose response in quadruplicates. PBMCs were incubated in the presence of antagonists for one hour at 37° C., 5% CO2 before being stimulated with TLR8 agonist. […] PBMCs were incubated in the presence of antagonist and the TLR8 agonist for an additional 6 hours at 37° C., 5% CO2. At the end of the incubation, the cell culture plates were centrifuged at 500 g for 5 min, and the cell culture supernatant was collected. The level of cytokines (TNFα and IL12p40) in the supernatant was measured by electrochemiluminescence immunoassays (Mesoscale Discovery) following manufacturer's recommended protocols.
# [1] = human PBMCs, read-out: TLR-7 EC50
# [2] = human PBMCs, read-out: TLR-8 EC50
# TLR8, sequence (Q9NR97 27-1041): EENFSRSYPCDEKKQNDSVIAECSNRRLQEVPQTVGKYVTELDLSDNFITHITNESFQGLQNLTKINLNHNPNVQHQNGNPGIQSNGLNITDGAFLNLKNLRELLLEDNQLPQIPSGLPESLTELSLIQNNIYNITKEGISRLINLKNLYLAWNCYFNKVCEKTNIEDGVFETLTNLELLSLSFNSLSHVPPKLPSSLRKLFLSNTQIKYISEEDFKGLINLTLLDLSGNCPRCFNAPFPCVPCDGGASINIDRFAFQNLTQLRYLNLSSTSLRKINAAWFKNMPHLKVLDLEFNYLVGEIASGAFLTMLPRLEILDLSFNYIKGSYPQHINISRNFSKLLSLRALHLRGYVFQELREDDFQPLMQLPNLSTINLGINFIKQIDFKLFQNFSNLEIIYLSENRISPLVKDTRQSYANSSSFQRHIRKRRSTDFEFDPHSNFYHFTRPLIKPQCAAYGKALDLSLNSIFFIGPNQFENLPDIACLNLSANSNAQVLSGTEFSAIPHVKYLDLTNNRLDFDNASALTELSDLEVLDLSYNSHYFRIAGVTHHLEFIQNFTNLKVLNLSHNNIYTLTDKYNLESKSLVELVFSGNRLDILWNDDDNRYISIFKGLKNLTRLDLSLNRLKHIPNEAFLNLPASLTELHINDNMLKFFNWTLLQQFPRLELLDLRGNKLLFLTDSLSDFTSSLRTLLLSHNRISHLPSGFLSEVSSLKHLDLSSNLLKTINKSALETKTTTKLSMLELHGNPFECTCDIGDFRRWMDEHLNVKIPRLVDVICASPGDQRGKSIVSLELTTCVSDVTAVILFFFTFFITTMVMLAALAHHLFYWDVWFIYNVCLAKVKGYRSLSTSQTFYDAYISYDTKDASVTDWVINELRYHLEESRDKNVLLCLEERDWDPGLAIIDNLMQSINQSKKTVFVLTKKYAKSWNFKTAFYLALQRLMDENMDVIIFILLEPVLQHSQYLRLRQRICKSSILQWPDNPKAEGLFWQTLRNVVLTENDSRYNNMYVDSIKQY
# TLR7, sequence (Q9NYK1 27-1049): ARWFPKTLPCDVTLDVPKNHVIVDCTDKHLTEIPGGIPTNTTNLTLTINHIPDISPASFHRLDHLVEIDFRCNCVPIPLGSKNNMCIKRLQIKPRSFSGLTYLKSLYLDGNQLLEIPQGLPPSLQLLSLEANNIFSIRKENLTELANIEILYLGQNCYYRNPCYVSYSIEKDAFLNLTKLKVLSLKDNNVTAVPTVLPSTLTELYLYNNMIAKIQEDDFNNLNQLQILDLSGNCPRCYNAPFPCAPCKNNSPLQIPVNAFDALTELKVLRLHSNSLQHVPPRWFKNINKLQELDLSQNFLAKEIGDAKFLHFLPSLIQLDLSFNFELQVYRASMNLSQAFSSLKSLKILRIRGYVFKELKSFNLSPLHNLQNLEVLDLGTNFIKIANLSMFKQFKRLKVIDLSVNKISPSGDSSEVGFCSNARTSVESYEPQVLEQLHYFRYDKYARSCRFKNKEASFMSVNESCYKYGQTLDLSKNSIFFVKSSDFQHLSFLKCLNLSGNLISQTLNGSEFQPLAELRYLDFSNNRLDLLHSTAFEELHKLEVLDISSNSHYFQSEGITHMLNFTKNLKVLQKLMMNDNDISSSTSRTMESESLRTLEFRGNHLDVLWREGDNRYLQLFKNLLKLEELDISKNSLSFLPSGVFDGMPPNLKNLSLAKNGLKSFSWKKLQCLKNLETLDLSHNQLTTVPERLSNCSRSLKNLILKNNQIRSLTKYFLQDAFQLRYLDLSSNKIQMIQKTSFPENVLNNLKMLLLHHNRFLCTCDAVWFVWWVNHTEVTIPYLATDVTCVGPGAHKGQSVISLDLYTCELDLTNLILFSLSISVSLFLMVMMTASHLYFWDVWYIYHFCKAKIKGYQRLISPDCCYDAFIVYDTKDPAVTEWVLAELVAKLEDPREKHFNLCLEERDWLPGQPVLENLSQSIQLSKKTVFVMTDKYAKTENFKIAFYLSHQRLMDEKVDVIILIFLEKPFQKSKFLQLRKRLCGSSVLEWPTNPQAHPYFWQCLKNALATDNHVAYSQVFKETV
SMILES,EC50 (TLR7; [1]),EC50 (TLR8; [2]),"EC50 (TLR7; TLR-7 EC50, human PBMCs)","EC50 (TLR8; TLR-8 EC50, human PBMCs)"
"Cc1c(-c2[nH]c3sc(C4CC(C(=O)N5CCNCC5)C4)c(C)c3c2C(C)C)cn2ncnc2c1C (single isomer, unassigned) [Example 238, (3-(5-(7,8-dimethyl-[1,2,4]triazolo[1,5-a]pyridin-6-yl)-4-isopropyl-3-methyl-6H-thieno[2,3-b]pyrrol-2-yl)cyclobutyl)(piperazin-1-yl)methanone]",0.39 nM,1.44 nM,,
Cc1c(C2CCN(C(=O)N3CCNCC3)CC2)sc2[nH]c(-c3cc(C)c4ncnn4c3)c(C(C)C)c12 [Example 32],0.05 nM,8.32 nM,,
"Cc1c(-c2[nH]c3sc(C4CC5(CNCCO5)C4)c(C)c3c2C(C)C)cn2ncnc2c1C (stereo not shown) [Example 76, 2-(5-(7,8-dimethyl-[1,2,4]triazolo[1,5-a]pyridin-6-yl)-4-isopropyl-3-methyl-6H-thieno[2,3-b]pyrrol-2-yl)-5-oxa-8-azaspiro[3.5]nonane]",0.05 nM,0.24 nM,,
Cc1c(-c2[nH]c3sc(C4CCN(C(=O)[C@@H]5COCCN5)CC4)c(C)c3c2C(C)C)cn2ncnc2c1C [Example 92],1.94 nM,2.67 nM,,
Cc1c(C23CCN(CC(N)=O)CC2C3(F)F)sc2[nH]c(-c3cc(C)c4ncnn4c3)c(C(C)C)c12 (stereo not shown) [Example 205],0.6 nM,230 nM,,
"Cc1c(-c2[nH]c3sc(C4CCC(N5CC6(CCNC6=O)C5)CC4)c(C)c3c2C(C)C)cn2ncnc2c1C (stereo not shown) [Example 299, 2-[4-[5-(7,8-dimethyl-[1,2,4]triazolo[1,5-a]pyridin-6-yl)-4-isopropyl-3-methyl-6H-thieno[2,3-b]pyrrol-2-yl]cyclohexyl]-2,6-diazaspiro[3.4]octan-5-one]",0.1 nM,2.17 nM,,
Cc1c(C2CC3(C2)CN(CC(N)=O)C3)sc2[nH]c(-c3cc(C)c4ncnn4c3)c(C(C)C)c12 [Example 29],0.94 nM,0.21 nM,,
Cc1cc(-c2[nH]c3sc(C(=O)N(C)[C@H]4CCNC4)cc3c2C(C)C)cn2ncnc12 [Example 3],0.27 nM,9.95 nM,,
Cc1c(-c2[nH]c3sc([C@@H]4C[C@@H]5C[C@H]4CN5C4CCS(=O)(=O)CC4)c(C)c3c2C(C)C)cn2ncnc2c1C [Example 168],0.74 nM,0.96 nM,,
Cc1c(C2CC3(CCCN3CC(N)=O)C2)sc2[nH]c(-c3cc(C)c4ncnn4c3)c(C(C)C)c12 (stereo not shown) [Example 140],0.91 nM,3.45 nM,,
Cc1c(CC2CCN(CC(N)=O)CC2)sc2[nH]c(-c3cc(C)c4ncnn4c3)c(C(C)C)c12 [Example 210],2.32 nM,10 nM,,
Cc1c(-c2[nH]c3sc(C4CC5(C4)CN(CC(N)=O)C5)c(C)c3c2C(C)C)cn2ncnc2c1C [Example 31],3.15 nM,0.05 nM,,
"Cc1c(-c2[nH]c3sc([C@@H]4C[C@@H]5C[C@H]4CN5CC(=O)O)c(C)c3c2C(C)C)cn2ncnc2c1C [Example 264, 2-((1S,4R,5R)-5-(5-(7,8-dimethyl-[1,2,4]triazolo[1,5-a]pyridin-6-yl)-4 isopropyl-3-methyl-6H-thieno[2,3-b]pyrrol-2-yl)-2-azabicyclo[2.2.1]heptan-2-yl)acetic acid]",2.52 nM,13.7 nM,,
Cc1c(-c2[nH]c3sc([C@@H]4C[C@@H]5C[C@H]4CN5CC(=O)N[C@H]4C[C@H](O)C4)c(C)c3c2C(C)C)cn2ncnc2c1C [Example 270],0.64 nM,0.59 nM,,
Cc1c(C23CCN(CC(N)=O)CC2C3)sc2[nH]c(-c3cc(C)c4ncnn4c3)c(C(C)C)c12 (stereo not shown) [Example 199],0.47 nM,14.8 nM,,
Cc1c(-c2[nH]c3sc(C4C[C@H]5CC[C@@H]4N5CC(N)=O)c(C)c3c2C(C)C)cn2ncnc2c1C (stereo partly shown) [Example 227],,,5.07 nM,15.5 nM
Cc1c(-c2[nH]c3sc([C@@H]4C[C@@H]5C[C@H]4CN5C4CC5(CCNC5=O)C4)c(C)c3c2C(C)C)cn2ncnc2c1C (stereo partly shown) [Example 297],< 0.05 nM,0.61 nM,,
Cc1c(-c2[nH]c3sc(C4C[C@@H]5C[C@H]4CC5N4CCS(=N)(=O)CC4)c(C)c3c2C(C)C)cn2ncnc2c1C (stereo partly shown) [Example 255],1.22 nM,21.4 nM,,
Cc1c(C2CCN(C(=O)C3(N4CCOCC4)CC3)CC2)sc2[nH]c(-c3cc(C)c4ncnn4c3)c(C(C)C)c12 [Example 116],0.39 nM,27.4 nM,,

SMILES,EC50 (TLR7; [1]),EC50 (TLR8; [2]),"EC50 (TLR7; TLR-7 EC50, human PBMCs)","EC50 (TLR8; TLR-8 EC50, human PBMCs)"
Cc1c(-c2ccc3[nH]c([C@H]4N[C@@H]5CC[C@H]4C5)nc3c2)sc2[nH]c(-c3cc(C)c4ncnn4c3)c(C(C)C)c12 [Example 22],1.27 nM,26.1 nM,,
Cc1c(-c2[nH]c3sc([C@@H]4C[C@@H]5C[C@H]4CN5C(=O)[C@@H]4C[C@@H](F)CN4)c(C)c3c2C(C)C)cn2ncnc2c1C [Example 150],1.64 nM,14.2 nM,,
CCc1c(C2CCNCC2)sc2[nH]c(-c3cc(C)c4ncnn4c3)c(C(C)C)c12 [Example 277],0.06 nM,20.1 nM,,
Cc1c(C2CC3COCC(C2)N3)sc2[nH]c(-c3cc(C)c4ncnn4c3)c(C(C)C)c12 (stereo not shown) [Example 59],2.97 nM,28.4 nM,,
Cc1c(-c2[nH]c3sc(-c4cnc(C5CCN(CC(N)=O)CC5)nc4)c(C)c3c2C(C)C)cn2ncnc2c1C [Example 226],4.14 nM,1 nM,,
Cc1c(-c2[nH]c3sc(C45CCN(CCS(C)(=O)=O)CC4C5)c(C)c3c2C(C)C)cn2ncnc2c1C (stereo not shown) [Example 217],1.27 nM,78.6 nM,,
Cc1nnc(CN2C[C@@H]3C[C@H]2C[C@H]3c2sc3[nH]c(-c4cn5ncnc5c(C)c4C)c(C(C)C)c3c2C)o1 [Example 119],0.34 nM,4.55 nM,,
Cc1c(C23CC2CCN(CC(N)=O)C3)sc2[nH]c(-c3cc(C)c4ncnn4c3)c(C(C)C)c12 (stereo not shown) [Example 196],0.72 nM,69.5 nM,,
Cc1c(-c2[nH]c3sc([C@@H]4C[C@@H]5C[C@H]4CN5CC(=O)N=S(C)(C)=O)c(C)c3c2C(C)C)cn2ncnc2c1C [Example 155],< 0.05 nM,0.51 nM,,
Cc1c(-c2[nH]c3sc(C4CCNCC4)c(C)c3c2C(C)C)cn2ncnc2c1C [Example 73],0.1 nM,4.16 nM,,
"Cc1c(-c2[nH]c3sc(C4CCN(C5CCNC5=O)CC4)c(C)c3c2C(C)C)cn2ncnc2c1C (single isomer, unassigned) [Example 290, 3-[4-[5-(7,8-dimethyl-[1,2,4]triazolo[1,5-a]pyridin-6-yl)-4-isopropyl-3-methyl-6H-thieno[2,3-b]pyrrol-2-yl]-1-piperidyl]pyrrolidin-2-one]",0.65 nM,19.3 nM,,
Cc1c(-c2[nH]c3sc(C4CC5(C4)CN(C(=O)[C@H]4COCCN4)C5)c(C)c3c2C(C)C)cn2ncnc2c1C [Example 52],2.08 nM,1.12 nM,,
Cc1nc2c(C)cc(-c3[nH]c4sc(C5CCNCC5)c(C)c4c3C(C)C)cn2n1 [Example 131],0.12 nM,6.92 nM,,
"COCc1c(C2CCNCC2)sc2[nH]c(-c3cc(C)c4ncnn4c3)c(C(C)C)c12 [Example 259, 4-isopropyl-3-(methoxymethyl)-5-(8-methyl-[1,2,4]triazolo[1,5-a]pyridin-6-yl)-2-(piperidin-4-yl)-6H-thieno[2,3-b]pyrrole]",0.15 nM,3.59 nM,,
"Cc1c(-c2[nH]c3sc([C@@H]4C[C@@H]5CC[C@H]4CN5CCS(C)(=O)=O)c(C)c3c2C(C)C)cn2ncnc2c1C (single isomer, unassigned) [Example 233]",0.16 nM,0.79 nM,,
Cc1cc(-c2[nH]c3sc([C@H]4C[C@@]5(CCN(CC(N)=O)C5)C4)c(C)c3c2C(C)C)cn2ncnc12 [Example 126],0.24 nM,1.74 nM,,
Cc1c(C2CCC3(CC2)CN(CC(N)=O)C3)sc2[nH]c(-c3cc(C)c4ncnn4c3)c(C(C)C)c12 [Example 25],0.11 nM,2.95 nM,,
COCc1c(C2CCN(CC(N)=O)CC2)sc2[nH]c(-c3cc(C)c4ncnn4c3)c(C(C)C)c12 [Example 160],0.26 nM,6.51 nM,,
Cc1c(-c2[nH]c3sc([C@@H]4C[C@@H]5C[C@H]4CN5Cc4nnc[nH]4)c(C)c3c2C(C)C)cn2ncnc2c1C [Example 176],0.08 nM,0.12 nM,,

# — patent US11661431B2, “Thienopyrrole compounds” (Gilead Sciences, Inc., priority 2021, dated 2023)
